Data on 15 compounds can be found in ChEMBL document CHEMBL5291721, “A preclinical secondary pharmacology resource illuminates target-adverse drug reaction associations of marketed drugs” (Nat Commun, 2023).

In assay [1] the target is Neuronal acetylcholine receptor subunit alpha-4 (Homo sapiens, UniProt P43681).
Assay [2] has as its target cGMP-inhibited 3',5'-cyclic phosphodiesterase 3A (Homo sapiens, UniProt Q14432). The class given is functional.
Assay [3] has as its target T1, Prostaglandin G/H synthase 1 (Rattus norvegicus, UniProt Q63921).
T1 sequence (Q63921 whole entry): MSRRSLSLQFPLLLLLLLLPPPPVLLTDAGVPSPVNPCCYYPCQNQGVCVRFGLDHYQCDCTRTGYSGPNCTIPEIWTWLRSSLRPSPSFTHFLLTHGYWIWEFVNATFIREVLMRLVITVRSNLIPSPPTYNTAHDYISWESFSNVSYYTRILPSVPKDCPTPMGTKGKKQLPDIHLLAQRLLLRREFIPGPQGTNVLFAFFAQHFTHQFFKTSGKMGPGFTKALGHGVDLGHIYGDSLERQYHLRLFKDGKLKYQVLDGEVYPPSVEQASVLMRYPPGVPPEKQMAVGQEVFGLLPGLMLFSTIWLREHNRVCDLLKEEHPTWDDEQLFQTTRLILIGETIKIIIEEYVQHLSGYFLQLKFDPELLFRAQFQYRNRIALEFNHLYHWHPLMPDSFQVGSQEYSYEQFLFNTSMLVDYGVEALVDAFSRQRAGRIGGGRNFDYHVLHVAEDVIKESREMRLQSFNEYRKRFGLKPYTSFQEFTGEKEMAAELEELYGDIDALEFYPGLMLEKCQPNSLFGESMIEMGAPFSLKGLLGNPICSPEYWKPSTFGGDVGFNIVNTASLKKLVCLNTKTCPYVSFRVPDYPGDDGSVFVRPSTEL
The format is functional.

Assay [4] addresses T2, 5-hydroxytryptamine receptor 2C (Homo sapiens, UniProt P28335).
T2 sequence (P28335 whole entry): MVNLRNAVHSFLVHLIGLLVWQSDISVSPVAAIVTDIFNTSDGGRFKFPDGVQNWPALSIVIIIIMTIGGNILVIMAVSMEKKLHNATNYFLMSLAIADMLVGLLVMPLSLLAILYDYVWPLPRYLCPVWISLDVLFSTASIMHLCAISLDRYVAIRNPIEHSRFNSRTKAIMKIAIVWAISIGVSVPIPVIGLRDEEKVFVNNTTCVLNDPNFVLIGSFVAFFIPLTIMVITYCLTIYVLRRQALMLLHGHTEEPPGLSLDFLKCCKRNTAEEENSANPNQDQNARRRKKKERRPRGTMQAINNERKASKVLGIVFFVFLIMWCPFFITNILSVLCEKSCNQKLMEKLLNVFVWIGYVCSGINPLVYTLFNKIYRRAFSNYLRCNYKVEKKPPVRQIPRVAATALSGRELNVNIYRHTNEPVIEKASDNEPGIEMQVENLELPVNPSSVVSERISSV

The target of assay [5] is Beta-1 adrenergic receptor (Homo sapiens, UniProt P08588). The class given is functional.
Sequence of Beta-1 adrenergic receptor (P08588 whole entry): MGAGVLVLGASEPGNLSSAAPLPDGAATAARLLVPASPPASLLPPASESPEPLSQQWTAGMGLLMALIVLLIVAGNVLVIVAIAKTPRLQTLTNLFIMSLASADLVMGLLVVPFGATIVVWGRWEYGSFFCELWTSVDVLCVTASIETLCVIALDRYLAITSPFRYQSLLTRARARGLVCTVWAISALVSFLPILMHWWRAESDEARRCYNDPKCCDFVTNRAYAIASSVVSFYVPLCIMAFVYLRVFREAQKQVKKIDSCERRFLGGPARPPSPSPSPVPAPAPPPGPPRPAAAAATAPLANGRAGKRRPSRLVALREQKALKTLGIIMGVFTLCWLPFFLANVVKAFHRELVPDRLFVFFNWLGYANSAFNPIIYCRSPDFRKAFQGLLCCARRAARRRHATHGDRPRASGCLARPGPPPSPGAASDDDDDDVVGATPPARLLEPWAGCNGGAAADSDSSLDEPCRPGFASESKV
The target of assay [6] is T3, Alpha-2A adrenergic receptor (Homo sapiens, UniProt P08913).
T3 sequence (P08913 whole entry): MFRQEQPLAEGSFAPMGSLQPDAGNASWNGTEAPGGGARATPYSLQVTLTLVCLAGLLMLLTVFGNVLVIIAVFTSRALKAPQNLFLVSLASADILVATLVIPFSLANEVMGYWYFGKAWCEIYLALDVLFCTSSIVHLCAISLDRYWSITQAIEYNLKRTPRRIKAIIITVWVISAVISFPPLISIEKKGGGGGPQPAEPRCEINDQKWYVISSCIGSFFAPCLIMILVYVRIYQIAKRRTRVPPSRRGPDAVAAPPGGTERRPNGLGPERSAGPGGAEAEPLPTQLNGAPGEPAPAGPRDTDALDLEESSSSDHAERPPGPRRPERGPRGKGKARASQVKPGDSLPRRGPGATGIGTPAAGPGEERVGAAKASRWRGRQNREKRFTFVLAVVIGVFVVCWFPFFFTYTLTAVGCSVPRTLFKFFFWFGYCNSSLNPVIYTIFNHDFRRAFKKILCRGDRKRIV
The format is functional, cell-based.

Assay [7] concerns the target T4, Muscarinic acetylcholine receptor M2 (Homo sapiens, UniProt P08172).
T4 sequence (P08172 whole entry): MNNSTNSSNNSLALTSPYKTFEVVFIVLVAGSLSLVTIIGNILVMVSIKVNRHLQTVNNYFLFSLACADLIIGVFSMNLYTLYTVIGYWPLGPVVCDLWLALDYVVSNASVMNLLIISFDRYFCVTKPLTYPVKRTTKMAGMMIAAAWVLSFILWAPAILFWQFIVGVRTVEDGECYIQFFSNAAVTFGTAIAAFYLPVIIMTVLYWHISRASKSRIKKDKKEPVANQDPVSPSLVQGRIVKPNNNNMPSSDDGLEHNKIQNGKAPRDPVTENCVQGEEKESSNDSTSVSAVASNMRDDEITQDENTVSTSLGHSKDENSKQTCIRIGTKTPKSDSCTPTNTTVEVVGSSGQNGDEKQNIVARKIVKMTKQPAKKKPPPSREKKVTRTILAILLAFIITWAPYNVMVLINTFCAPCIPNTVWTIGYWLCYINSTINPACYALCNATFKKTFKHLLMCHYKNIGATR
The format is functional, cell-based.

Another assay addresses T5, Estrogen receptor (Homo sapiens, UniProt P03372).
T5 sequence (P03372 whole entry): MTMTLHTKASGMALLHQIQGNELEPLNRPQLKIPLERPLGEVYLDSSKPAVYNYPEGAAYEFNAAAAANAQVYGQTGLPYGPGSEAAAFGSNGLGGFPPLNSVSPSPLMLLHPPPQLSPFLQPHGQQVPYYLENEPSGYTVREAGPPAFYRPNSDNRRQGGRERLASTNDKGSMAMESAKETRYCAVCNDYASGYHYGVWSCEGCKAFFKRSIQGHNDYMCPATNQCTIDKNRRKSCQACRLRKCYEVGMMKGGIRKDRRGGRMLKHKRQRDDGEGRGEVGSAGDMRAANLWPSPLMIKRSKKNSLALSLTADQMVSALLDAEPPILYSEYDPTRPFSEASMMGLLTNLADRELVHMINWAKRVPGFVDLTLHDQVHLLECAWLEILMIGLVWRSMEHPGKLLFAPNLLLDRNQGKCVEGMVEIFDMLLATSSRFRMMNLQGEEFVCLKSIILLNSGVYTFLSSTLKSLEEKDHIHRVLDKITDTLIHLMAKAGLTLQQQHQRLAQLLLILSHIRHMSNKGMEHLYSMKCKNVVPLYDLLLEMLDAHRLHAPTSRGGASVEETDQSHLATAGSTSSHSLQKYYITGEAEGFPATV

Another assay deals with Vasopressin V1a receptor (Homo sapiens, UniProt P37288).
Sequence of Vasopressin V1a receptor (P37288 whole entry): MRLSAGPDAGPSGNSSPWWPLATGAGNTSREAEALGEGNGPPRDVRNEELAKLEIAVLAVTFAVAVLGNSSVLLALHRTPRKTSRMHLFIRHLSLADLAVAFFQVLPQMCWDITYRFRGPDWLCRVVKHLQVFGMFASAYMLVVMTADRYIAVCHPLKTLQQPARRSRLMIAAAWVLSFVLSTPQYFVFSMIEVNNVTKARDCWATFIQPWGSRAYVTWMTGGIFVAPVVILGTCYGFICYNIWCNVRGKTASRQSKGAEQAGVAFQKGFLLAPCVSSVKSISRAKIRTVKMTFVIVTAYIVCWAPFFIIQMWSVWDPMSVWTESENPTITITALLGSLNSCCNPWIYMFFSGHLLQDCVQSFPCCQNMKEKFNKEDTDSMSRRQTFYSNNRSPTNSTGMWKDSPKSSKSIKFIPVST
The target in assay [8] is Muscarinic acetylcholine receptor M3 (Homo sapiens, UniProt P20309).
Sequence of Muscarinic acetylcholine receptor M3 (P20309 whole entry): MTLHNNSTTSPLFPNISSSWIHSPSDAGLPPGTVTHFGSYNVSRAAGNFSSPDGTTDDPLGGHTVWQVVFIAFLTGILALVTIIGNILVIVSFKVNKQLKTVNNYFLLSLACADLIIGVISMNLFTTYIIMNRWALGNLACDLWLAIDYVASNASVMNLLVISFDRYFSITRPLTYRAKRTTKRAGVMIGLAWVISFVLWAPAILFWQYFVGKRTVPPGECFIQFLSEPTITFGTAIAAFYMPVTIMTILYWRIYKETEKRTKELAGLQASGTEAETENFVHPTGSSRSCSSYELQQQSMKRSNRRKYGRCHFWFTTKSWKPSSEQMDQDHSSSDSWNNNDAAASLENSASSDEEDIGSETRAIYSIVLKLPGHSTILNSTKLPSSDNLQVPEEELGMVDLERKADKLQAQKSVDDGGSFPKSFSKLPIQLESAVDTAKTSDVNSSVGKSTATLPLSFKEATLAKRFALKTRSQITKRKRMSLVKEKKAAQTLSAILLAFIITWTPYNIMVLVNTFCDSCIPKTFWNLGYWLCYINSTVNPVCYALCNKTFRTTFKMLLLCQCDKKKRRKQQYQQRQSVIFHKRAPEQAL
Note: assay procedure not described here.

Sequence of Neuronal acetylcholine receptor subunit alpha-4 (P43681 whole entry): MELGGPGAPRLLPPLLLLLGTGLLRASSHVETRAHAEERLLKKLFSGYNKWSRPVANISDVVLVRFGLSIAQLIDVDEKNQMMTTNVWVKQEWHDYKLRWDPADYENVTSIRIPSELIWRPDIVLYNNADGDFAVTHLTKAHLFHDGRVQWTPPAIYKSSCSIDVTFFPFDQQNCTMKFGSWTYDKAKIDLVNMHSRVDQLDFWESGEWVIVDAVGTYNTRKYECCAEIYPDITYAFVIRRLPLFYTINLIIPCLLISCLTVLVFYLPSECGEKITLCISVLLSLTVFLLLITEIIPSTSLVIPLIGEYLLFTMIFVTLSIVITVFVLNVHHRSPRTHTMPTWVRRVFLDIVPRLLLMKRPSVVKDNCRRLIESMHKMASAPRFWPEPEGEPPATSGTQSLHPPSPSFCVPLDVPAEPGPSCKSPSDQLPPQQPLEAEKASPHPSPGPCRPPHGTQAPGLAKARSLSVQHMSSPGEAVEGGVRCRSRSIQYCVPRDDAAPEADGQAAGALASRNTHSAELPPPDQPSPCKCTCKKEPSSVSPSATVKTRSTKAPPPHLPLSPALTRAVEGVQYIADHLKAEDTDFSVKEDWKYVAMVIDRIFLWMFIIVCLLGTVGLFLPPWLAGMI
Sequence of cGMP-inhibited 3',5'-cyclic phosphodiesterase 3A (Q14432 whole entry): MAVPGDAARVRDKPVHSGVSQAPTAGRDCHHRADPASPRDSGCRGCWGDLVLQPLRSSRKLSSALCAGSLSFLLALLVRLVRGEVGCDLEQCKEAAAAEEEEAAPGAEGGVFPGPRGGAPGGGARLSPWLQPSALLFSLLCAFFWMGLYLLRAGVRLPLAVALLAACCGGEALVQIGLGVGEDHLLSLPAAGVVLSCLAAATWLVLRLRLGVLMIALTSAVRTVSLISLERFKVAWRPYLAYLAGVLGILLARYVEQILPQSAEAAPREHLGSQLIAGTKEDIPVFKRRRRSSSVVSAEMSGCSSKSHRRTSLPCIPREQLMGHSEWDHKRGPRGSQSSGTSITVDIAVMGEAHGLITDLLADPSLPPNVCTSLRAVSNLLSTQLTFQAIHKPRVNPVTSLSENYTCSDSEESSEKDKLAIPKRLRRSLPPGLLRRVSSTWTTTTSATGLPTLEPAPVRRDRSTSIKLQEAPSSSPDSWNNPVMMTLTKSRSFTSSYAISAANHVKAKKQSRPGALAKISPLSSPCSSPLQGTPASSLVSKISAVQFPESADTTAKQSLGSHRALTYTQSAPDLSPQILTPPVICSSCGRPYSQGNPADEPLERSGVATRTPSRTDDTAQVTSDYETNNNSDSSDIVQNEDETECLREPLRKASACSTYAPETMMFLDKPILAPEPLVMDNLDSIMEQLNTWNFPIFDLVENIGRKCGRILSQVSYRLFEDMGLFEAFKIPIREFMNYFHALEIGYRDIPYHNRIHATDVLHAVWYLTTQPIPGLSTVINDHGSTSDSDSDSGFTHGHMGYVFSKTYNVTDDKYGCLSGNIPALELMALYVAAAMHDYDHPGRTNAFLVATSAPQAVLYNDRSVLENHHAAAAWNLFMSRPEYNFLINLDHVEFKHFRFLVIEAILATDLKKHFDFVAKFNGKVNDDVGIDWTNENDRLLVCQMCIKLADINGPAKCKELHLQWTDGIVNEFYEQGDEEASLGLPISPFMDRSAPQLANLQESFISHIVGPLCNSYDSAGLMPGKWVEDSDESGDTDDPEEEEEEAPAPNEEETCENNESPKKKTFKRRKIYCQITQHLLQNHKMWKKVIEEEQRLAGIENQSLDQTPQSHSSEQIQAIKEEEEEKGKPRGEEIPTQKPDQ

For the compound `NC(=O)CN1CCCC1=O`, the concentration at half-maximal activity (AC50) in [1], in assay [2], in assay [3], in assay [4], in [5] and in assay [6] was greater than 30 µM each time. Also, the AC50 in assay [7] was greater than 30 µM.

For `Cn1c(=O)cc(N2CCC[C@@H](N)C2)n(Cc2ccccc2C#N)c1=O` [ALOGLIPTIN], the half-maximal activity concentration (AC50) in [1] was greater than 10 µM; in [2], greater than 30 µM; in [3], greater than 30 µM; in [4], greater than 30 µM; in assay [5] it was greater than 10 µM; at Estrogen receptor, greater than 30 µM. Further, the concentration at half-maximal activity (AC50) on Vasopressin V1a receptor was greater than 10 µM.

Consider `O=C(O)CCNC(=O)c1ccccc1` [BETAMIPRON], for which the AC50 in [1] is greater than 30 µM; in assay [2] it was greater than 30 µM; in assay [3] it was greater than 10 µM; in assay [4], greater than 30 µM; in assay [5], greater than 30 µM; in [6], greater than 30 µM. The half-maximal activity concentration (AC50) (in assay [7]; on Estrogen receptor) was greater than 30 µM throughout.

Take `COc1cc2ncnc(Nc3ccc(F)c(Cl)c3)c2cc1NC(=O)/C=C/CN1CCCCC1` [DACOMITINIB ANHYDROUS]: the AC50 in [1] was greater than 30 µM; in assay [2], greater than 30 µM; in assay [3], greater than 30 µM; in [5], greater than 30 µM; in assay [7], greater than 10 µM.

`CC(=O)OCC(=O)[C@@]1(O)[C@H](C)C[C@H]2[C@@H]3CCC4=CC(=O)C=C[C@]4(C)[C@@]3(F)[C@@H](O)C[C@@]21C` [DEXAMETHASONE ACETATE]: the AC50 in assay [1] is greater than 10 µM; in [2] it was greater than 30 µM; in [3] it was greater than 30 µM; in [8], greater than 30 µM; in assay [4], greater than 30 µM; in assay [5], greater than 10 µM. The values for the AC50 (in assay [6]; in assay [7]; on Vasopressin V1a receptor) were greater than 10 µM, greater than 10 µM and greater than 30 µM, respectively.

For the compound `CCCCCCCCCCCCCCCCCCCCCC(=O)Nc1ccn([C@@H]2O[C@H](CO)[C@@H](O)[C@@H]2O)c(=O)n1` [ENOCITABINE], the AC50 in assay [1], in assay [2], in assay [3], in [8], in assay [5] and in [6] was greater than 30 µM in each case. Besides, the half-maximal activity concentration (AC50) (in [7]; on Vasopressin V1a receptor) was greater than 30 µM in each case.

For the compound `CC(=O)[C@]1(O)Cc2c(O)c3c(c(O)c2[C@@H](O[C@H]2C[C@H](N)[C@H](O)[C@H](C)O2)C1)C(=O)c1ccccc1C3=O` [IDARUBICIN], the half-maximal activity concentration (AC50) was greater than 30 µM in assay [1]; greater than 30 µM in [2]; greater than 30 µM in [3]; 9.3 µM in [4]; greater than 30 µM in [5]; greater than 30 µM on Vasopressin V1a receptor.

As for `Nc1cc(-c2ccncc2)c[nH]c1=O` [INAMRINONE], the half-maximal activity concentration (AC50) was greater than 10 µM in assay [1]; greater than 30 µM in [3]; greater than 30 µM in assay [4]; greater than 10 µM in assay [5]; greater than 10 µM in [6]; greater than 10 µM in assay [7]. The compound also returned an AC50 on Estrogen receptor greater than 30 µM.

For the compound `CCOC(=O)O[C@]1(C(=O)OCCl)CC[C@H]2[C@@H]3CCC4=CC(=O)C=C[C@]4(C)[C@H]3[C@@H](O)C[C@@]21C` [LOTEPREDNOL ETABONATE], the half-maximal activity concentration (AC50) in assay [1], in assay [2], in assay [3], in [8], in assay [4] and in assay [5] was greater than 30 µM throughout. For the same compound, the AC50 (in [6]; in assay [7]; on Vasopressin V1a receptor) was greater than 30 µM throughout.

As for `COc1ccc(-c2noc(CC(=O)O)c2-c2ccc(OC)cc2)cc1` [MOFEZOLAC], the AC50 in [1] was greater than 30 µM; in assay [2] it was 13 µM; in assay [3], 0.037 µM; in assay [8], greater than 30 µM; in assay [4], greater than 30 µM; in assay [5] it was greater than 30 µM. In addition, the half-maximal activity concentration (AC50) (in [6]; in assay [7]; at Vasopressin V1a receptor) was greater than 30 µM each time.

In the case of `O=C1CN=C(c2ccccc2)c2cc([N+](=O)[O-])ccc2N1` [NITRAZEPAM], the AC50 in assay [1] is greater than 10 µM; in assay [2], greater than 30 µM; in assay [3], greater than 10 µM; in assay [4] it was greater than 30 µM; in assay [5], greater than 10 µM; in [6], greater than 10 µM. Also, the half-maximal activity concentration (AC50) (in assay [7]; at Estrogen receptor) was greater than 10 µM throughout.

In the case of `CN(C(=O)c1c(O)c2ccccc2n(C)c1=O)c1ccccc1` [ROQUINIMEX], the AC50 in [1], in assay [2], in [3] and in assay [5] was greater than 30 µM throughout.

As for `Cn1cnc2c(F)c(Nc3ccc(Br)cc3Cl)c(C(=O)NOCCO)cc21` [SELUMETINIB], the concentration at half-maximal activity (AC50) in assay [1] was greater than 10 µM; in assay [2] it was greater than 30 µM; in assay [3], greater than 30 µM.

On to `CCN(CC)CCNC(=O)c1cc(S(C)(=O)=O)ccc1OC` [TIAPRIDE], for which the concentration at half-maximal activity (AC50) in [1], in assay [2], in [3], in [4], in assay [5] and in assay [6] was greater than 30 µM in each case. Further, the AC50 (in [7]; on Estrogen receptor; at Vasopressin V1a receptor) was greater than 30 µM throughout.

Regarding `NC1CCN(c2nc3c(cc2F)c(=O)c(C(=O)O)cn3-c2ccc(F)cc2F)C1` (configuration not stated) [TOSUFLOXACIN], the AC50 in assay [1] was greater than 30 µM; in [2], greater than 30 µM; in assay [3], greater than 10 µM; in assay [4], greater than 30 µM; in [5] it was greater than 30 µM; in [6] it was greater than 30 µM. Moreover, the AC50 (in assay [7]; at Estrogen receptor) was greater than 30 µM throughout.

A word on the AC50: it is the concentration giving half of the maximal activity seen. Read a low AC50 as greater potency.
